Row | SMILES | melting point
1 | CCN(CCO)CCc1ccc(N/C(=C2\C(=O)Nc3ccc([N+](=O)[O-])cc32)c2ccccc2)cc1 [Example 131, (Z)-3-{1-[4-(2-(N-(2-hydroxyethyl)-N-ethyl-amino)-ethyl)-phenylamino]-1-phenyl-methylidene}-5-nitro-2-indolinone] | 165 to 166 °C
2 | CC(=O)N(C)c1cccc(N/C(=C2\C(=O)Nc3ccccc32)c2ccccc2)c1 [Example 38, (Z)-3-{1-[3-(N-acetyl-N-methylamino)-phenylamino]-1-phenyl-methylidene}-2-indolinone] | 237 to 239 °C
3 | CN(C)CCN(c1ccc(N/C(=C2\C(=O)Nc3ccccc32)c2ccc(CN)cc2)cc1)S(C)(=O)=O [Example 426, (Z)-3-{1-[4-(N-(2-dimethylaminoethyl)-N-methylsulphonyl-amino)-phenylamino]-1-(4-aminomethyl-phenyl)-methylidene}-2-indolinone] | 203 to 205 °C
4 | O=C1Nc2ccc([N+](=O)[O-])cc2/C1=C(/Nc1ccc(CN2CCCCC2)cc1)c1ccc(C(F)(F)F)cc1 [Example 442, (Z)-3-[1-(4-piperidinomethyl-phenylamino)-1-(4-trifluoromethyl-phenyl)-methylidene]-5-nitro-2-indolinone] | 300 to 302 °C
5 | O=C(O)Cc1ccc(N/C(=C2\C(=O)Nc3ccccc32)c2ccccc2)cc1 [Example 16, (Z)-3-[1-(4-carboxymethyl-phenylamino)-1-phenyl-methylidene]-2-indolinone] | 214 to 216 °C
6 | O=C(O)CNS(=O)(=O)c1ccc(N/C(=C2\C(=O)Nc3ccc([N+](=O)[O-])cc32)c2ccccc2)cc1 [Example 411, (Z)-3-{1-[4-(carboxymethylaminosulphonyl)-phenylamino]-1-phenyl-methylidene}-5-nitro-2-indolinone] | 177 to 180 °C (dec.)
7 | CC(=O)NCc1ccc(/C(Nc2cccc(N(CC(=O)N(C)C)S(C)(=O)=O)c2)=C2/C(=O)Nc3ccccc32)cc1 [Example 421, (Z)-3-{1-[3-(N-dimethylaminocarbonylmethyl-N-methylsulphonyl-amino)-phenylamino]-1-(4-acetylaminomethyl-phenyl)-methylidene}-2-indolinone] | 194 °C
8 | CN(C)Cc1ccc(N/C(=C2\C(=O)Nc3ccccc32)c2cccc(Cl)c2)cc1 [Example 223, (Z)-3-[1-(4-dimethylaminomethyl-phenylamino)-1-(3-chlorophenyl)-methylidene]-2-indolinone] | 197 to 198 °C
9 | CCC(=O)N(CCN(C)C)c1ccc(N/C(=C2\C(=O)Nc3ccccc32)c2ccccc2)cc1 [Example 341, (Z)-3-{1-[4-(N-(2-dimethylaminoethyl)-N-propionyl-amino)-phenylamino]-1-phenyl-methylidene}-2-indolinone] | 272 to 274 °C
10 | COC(=O)CNC(=O)c1ccc(/C(Nc2ccc(CN3CCCCC3)cc2)=C2/C(=O)Nc3ccc([N+](=O)[O-])cc32)cc1 [Example 446, (Z)-3-[1-(4-piperidinomethyl-phenylamino)-1-(4-methoxycarbonylmethylaminocarbonyl-phenyl)-methylidene]-5-nitro-2-indolinone] | 230 to 235 °C
11 | Cl.NCCc1ccc(N/C(=C2\C(=O)Nc3ccc([N+](=O)[O-])cc32)c2ccccc2)cc1 | 335 to 340 °C (dec.)
12 | CN(C)CCCN(C)S(=O)(=O)c1ccc(N/C(=C2\C(=O)Nc3ccc([N+](=O)[O-])cc32)c2ccccc2)cc1 [Example 404, (Z)-3-{1-[4-(N-(3-dimethylaminopropyl)-N-methyl-aminosulphonyl)-phenylamino]-1-phenyl-methylidene}-5-nitro-2-indolinone] | 269 to 270 °C (dec.)
13 | CC(C)C(=O)N(CCN(C)C)c1ccc(N/C(=C2\C(=O)Nc3ccccc32)c2ccccc2)cc1 [Example 342, (Z)-3-{1-[4-(N-(2-dimethylaminoethyl)-N-isopropylcarbonyl-amino)-phenylamino]-1-phenyl-methylidene}-2-indolinone] | 280 to 282 °C
14 | CN(C)C(=O)CN(C)S(=O)(=O)c1ccc(N/C(=C2\C(=O)Nc3ccc([N+](=O)[O-])cc32)c2ccccc2)cc1 [Example 415, (Z)-3-{1-[4-(N-dimethylaminocarbonylmethyl-N-methyl-aminosulphonyl)-phenylamino]-1-phenyl-methylidene}-5-nitro-2-indolinone] | 277 to 278 °C
15 | CNCc1ccc(N/C(=C2\C(=O)Nc3ccc([N+](=O)[O-])cc32)c2ccccc2)cc1.Cl | 351 °C
16 | CN(C(=O)CN)c1ccc(N/C(=C2\C(=O)Nc3ccccc32)c2ccccc2)cc1 [Example 366, (Z)-3-{1-[4-(N-aminomethylcarbonyl-N-methyl-amino)-phenylamino]-1-phenyl-methylidene}-2-indolinone] | 238 to 239 °C
17 | O=C1Nc2ccc([N+](=O)[O-])cc2/C1=C(/Nc1ccc(CN2CCC(CO)CC2)cc1)c1ccccc1 [Example 250, (Z)-3-{1-[4-(4-hydroxymethyl-piperidinomethyl)-phenylamino]-1-phenyl-methylidene}-5-nitro-2-indolinone] | 227 to 228 °C
18 | CCOC(=O)CCCN(c1ccc(N/C(=C2\C(=O)Nc3ccccc32)c2ccccc2)cc1)S(C)(=O)=O [Example 195, (Z)-3-{1-[4-(N-(3-ethoxycarbonyl-propyl)-N-methylsulphonyl-amino)-phenylamino]-1-phenyl-methylidene}-2-indolinone] | 265 to 268 °C
19 | O=C1Nc2ccccc2/C1=C(/Nc1ccc(NS(=O)(=O)CCN2CCOCC2)cc1)c1ccccc1 [Example 381, (Z)-3-{1-[4-(2-morpholinoethylsulphonylamino)-phenylamino]-1-phenyl-methylidene}-2-indolinone] | 240 to 242 °C
20 | CC1(O)CCN(Cc2ccc(N/C(=C3\C(=O)Nc4ccc([N+](=O)[O-])cc43)c3ccccc3)cc2)CC1 [Example 251, (Z)-3-{1-[4-(4-hydroxy-4-methyl-piperidinomethyl)-phenylamino]-1-phenyl-methylidene}-5-nitro-2-indolinone] | 186 to 187 °C
21 | O=C1Nc2ccc([N+](=O)[O-])cc2/C1=C(/Nc1ccc(CN2CCC(O)CC2)cc1)c1ccccc1 [Example 168, (Z)-3-{1-[4-(4-hydroxypiperidinomethyl)-phenylamino]-1-phenyl-methylidene}-5-nitro-2-indolinone] | 155 °C
22 | CN1CCN(Cc2cccc(N/C(=C3\C(=O)Nc4ccc([N+](=O)[O-])cc43)c3ccccc3)c2)CC1 [Example 110, (Z)-3-{1-[3-(4-methylpiperazinomethyl)-phenylamino]-1-phenyl-methylidene}-5-nitro-2-indolinone] | 256 to 258 °C
23 | CCN(CC)C(=O)c1ccc(N/C(=C2\C(=O)Nc3ccccc32)c2ccccc2)cc1 | 202 to 204 °C
24 | O=C1Nc2ccc([N+](=O)[O-])cc2/C1=C(/Nc1ccc(CNc2ncccn2)cc1)c1ccccc1 [Example 271, (Z)-3-{1-[4-(pyrimidin-2-ylaminomethyl)-phenylamino]-1-phenyl-methylidene}-5-nitro-2-indolinone] | 284 to 286 °C
25 | CCOC(=O)CN(C(=O)c1ccccc1)c1ccc(N/C(=C2\C(=O)Nc3ccccc32)c2ccccc2)cc1 [Example 360, (Z)-3-{1-[4-(N-ethoxycarbonylmethyl-N-benzoyl-amino)-phenylamino]-1-phenyl-methylidene}-2-indolinone] | 209 to 211 °C

From patent US6855710B2, “Substituted indolines with an inhibitory effect on various kinases and complexes of CDKs” (Boehringer Ingelheim Pharma KG, priority 1998, dated 2005)
